# Where “and” joins values, the source holds several entries; their conditions need not be identical. Equal entries are not always repeated. Inconclusive results and toxic doses are left out.
# Tested on: BDF1 mice, L1210 leukemia sc, survival T/C
# Test: NCI In Vivo Anticancer Drug Screen. Data for tumor model L1210 Leukemia (subcutaneous) in B6D2F1 (BDF1) mice
# Conditions: higher = longer survival
# In short: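 Read-out: T/C ratio, i.e. survival or tumor size in treated mice over that in vehicle-treated controls, from mice bearing transplantable tumors.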
# [1] = endpoint: median survival time, dose: 14.0 mg/kg/injection, schedule: Q01DX Z (sc), vehicle: saline
# [2] = endpoint: median survival time, dose: 39.0 mg/kg/injection, schedule: Q01DX Z (sc), vehicle: saline
# [3] = endpoint: median survival time, dose: 65.0 mg/kg/injection, schedule: Q01DX Z (sc), vehicle: saline
# [4] = endpoint: median survival time, dose: 108.0 mg/kg/injection, schedule: Q01DX Z (sc), vehicle: saline
# [5] = endpoint: median survival time, dose: 180.0 mg/kg/injection, schedule: Q01DX Z (sc), vehicle: saline
# [6] = endpoint: median survival time, dose: 65.0 mg/kg/injection, schedule: Q01DX Z (sc), vehicle: methylcellulose (MC)
# [7] = endpoint: median survival time, dose: 108.0 mg/kg/injection, schedule: Q01DX Z (sc), vehicle: methylcellulose (MC)
# [8] = endpoint: median survival time, dose: 180.0 mg/kg/injection, schedule: Q01DX Z (sc), vehicle: methylcellulose (MC)
# [9] = endpoint: median survival time, dose: 300.0 mg/kg/injection, schedule: Q01DX Z (sc), vehicle: methylcellulose (MC)
compound,measurement,setting,value
S=P(N1CCOCC1)(N1CC1)N1CC1,T/C,[1],96 % of control and 110 % of control (2×)
same,T/C,"endpoint: median survival time, dose: 23.0 mg/kg/injection, schedule: Q## X Z (sc), vehicle: saline",120 % of control
same,T/C,"endpoint: median survival time, dose: 39.0 mg/kg/injection, schedule: Q01DX001 (sc), vehicle: saline",120 % of control
same,T/C,[2],150 % of control and 180 % of control
same,T/C,"endpoint: median survival time, dose: 65.0 mg/kg/injection, schedule: Q01DX001 (sc), vehicle: saline",150 % of control
same,T/C,[3],150 % of control
same,T/C,"endpoint: median survival time, dose: 65.0 mg/kg/injection, schedule: Q## X Z (sc), vehicle: saline",170 % of control
same,T/C,[4],104 % of control and 120 % of control
same,T/C,[5],104 % of control and 120 % of control
same,T/C,"endpoint: median survival time, dose: 500.0 mg/kg/injection, schedule: Q01DX001 (sc), vehicle: saline",115 % of control
CCOS(C)(=O)=O,T/C,[1],100 % of control
same,T/C,"endpoint: median survival time, dose: 23.0 mg/kg/injection, schedule: Q01DX Z (sc), vehicle: saline",95 % of control
same,T/C,[2],100 % of control
same,T/C,[3],90 % of control
same,T/C,[4],95 % of control
same,T/C,[5],90 % of control
Nc1nc(N)c2nc(CNc3ccc(C(=O)NC(CCC(=O)O)C(=O)O)cc3)cnc2n1 (centres undefined),T/C,"endpoint: median survival time, dose: 0.04 mg/kg/injection, schedule: Q01DX Z (sc), vehicle: other",100 % of control
same,T/C,"endpoint: median survival time, dose: 0.05 mg/kg/injection, schedule: Q01DX Z (sc), vehicle: other",100 % of control
same,T/C,"endpoint: median survival time, dose: 0.08 mg/kg/injection, schedule: Q01DX Z (sc), vehicle: other",100 % of control
same,T/C,"endpoint: median survival time, dose: 0.4 mg/kg/injection, schedule: Q01DX Z (sc), vehicle: other",120 % of control
same,T/C,"endpoint: median survival time, dose: 0.6 mg/kg/injection, schedule: Q01DX Z (sc), vehicle: other",120 % of control
same,T/C,"endpoint: median survival time, dose: 0.89 mg/kg/injection, schedule: Q01DX Z (sc), vehicle: other",120 % of control
same,T/C,"endpoint: median survival time, dose: 1.33 mg/kg/injection, schedule: Q01DX Z (sc), vehicle: other",110 % of control
same,T/C,"endpoint: median survival time, dose: 2.0 mg/kg/injection, schedule: Q01DX Z (sc), vehicle: other",120 % of control
NS(=O)(=O)c1ncnc2nc[nH]c12,T/C,[6],100 % of control
same,T/C,[7],105 % of control
C=CCCCCCCCCC(C)(N)C(=O)O (centres undefined),T/C,"endpoint: median survival time, dose: 14.0 mg/kg/injection, schedule: Q01DX Z (sc), vehicle: methylcellulose (MC)",100 % of control
same,T/C,"endpoint: median survival time, dose: 23.0 mg/kg/injection, schedule: Q01DX Z (sc), vehicle: methylcellulose (MC)",90 % of control
same,T/C,"endpoint: median survival time, dose: 39.0 mg/kg/injection, schedule: Q01DX Z (sc), vehicle: methylcellulose (MC)",90 % of control
same,T/C,[6],95 % of control
same,T/C,[7],95 % of control
same,T/C,[8],100 % of control
same,T/C,[9],95 % of control
COc1ccc2cc1Oc1ccc(cc1)C[C@H]1c3cc(c(OC)cc3CCN1C)Oc1c(OC)c(OC)cc3c1[C@H](C2)N(C)CC3,T/C,"endpoint: median survival time, dose: 37.5 mg/kg/injection, schedule: Q01DX009 (sc), vehicle: methylcellulose (MC)",90 % of control
same,T/C,"endpoint: median survival time, dose: 37.5 mg/kg/injection, schedule: Q01DX009 (sc), vehicle: other",90 % of control
same,T/C,"endpoint: median survival time, dose: 39.0 mg/kg/injection, schedule: Q01DX009 (sc), vehicle: other",100 % of control and 103 % of control
same,T/C,"endpoint: median survival time, dose: 65.0 mg/kg/injection, schedule: Q01DX009 (sc), vehicle: other",100 % of control and 103 % of control
same,T/C,"endpoint: median survival time, dose: 75.0 mg/kg/injection, schedule: Q01DX009 (sc), vehicle: methylcellulose (MC)",90 % of control
same,T/C,"endpoint: median survival time, dose: 75.0 mg/kg/injection, schedule: Q01DX009 (sc), vehicle: other",92 % of control
same,T/C,"endpoint: median survival time, dose: 108.0 mg/kg/injection, schedule: Q01DX009 (sc), vehicle: other",94 % of control and 95 % of control
same,T/C,"endpoint: median survival time, dose: 150.0 mg/kg/injection, schedule: Q01DX009 (sc), vehicle: methylcellulose (MC)",95 % of control
same,T/C,"endpoint: median survival time, dose: 150.0 mg/kg/injection, schedule: Q01DX009 (sc), vehicle: other",96 % of control
same,T/C,"endpoint: median survival time, dose: 180.0 mg/kg/injection, schedule: Q01DX009 (sc), vehicle: other",97 % of control and 100 % of control
same,T/C,"endpoint: median survival time, dose: 300.0 mg/kg/injection, schedule: Q01DX009 (sc), vehicle: other",88 % of control and 91 % of control and 82 % of control
same,T/C,"endpoint: median survival time, dose: 600.0 mg/kg/injection, schedule: Q01DX009 (sc), vehicle: other",70 % of control
CC(=O)OCC1OC(n2ccc(N)nc2=O)C(OC(C)=O)C1OC(C)=O (centres undefined),T/C,"endpoint: median survival time, dose: 20.0 mg/kg/injection, schedule: Q01DX Z (oral), vehicle: carboxymethylcellulose (CMC)",220 % of control
same,T/C,"endpoint: median survival time, dose: 20.0 mg/kg/injection, schedule: Q01DX Z (sc), vehicle: carboxymethylcellulose (CMC)",290 % of control
same,T/C,"endpoint: median survival time, dose: 40.0 mg/kg/injection, schedule: Q01DX Z (oral), vehicle: carboxymethylcellulose (CMC)",255 % of control
same,T/C,"endpoint: median survival time, dose: 40.0 mg/kg/injection, schedule: Q01DX Z (sc), vehicle: carboxymethylcellulose (CMC)",360 % of control
same,T/C,"endpoint: median survival time, dose: 80.0 mg/kg/injection, schedule: Q01DX Z (oral), vehicle: carboxymethylcellulose (CMC)",270 % of control
same,T/C,"endpoint: median survival time, dose: 80.0 mg/kg/injection, schedule: Q01DX Z (sc), vehicle: carboxymethylcellulose (CMC)",360 % of control
same,T/C,"endpoint: median survival time, dose: 160.0 mg/kg/injection, schedule: Q01DX Z (oral), vehicle: carboxymethylcellulose (CMC)",260 % of control
same,T/C,"endpoint: median survival time, dose: 160.0 mg/kg/injection, schedule: Q01DX Z (sc), vehicle: carboxymethylcellulose (CMC)",225 % of control
same,T/C,"endpoint: median survival time, dose: 320.0 mg/kg/injection, schedule: Q01DX Z (oral), vehicle: carboxymethylcellulose (CMC)",320 % of control
CCC(=O)OCC1OC(n2cnc3c(=S)nc(N)[nH]c32)C(OC(=O)CC)C1OC(=O)CC (centres undefined),T/C,"endpoint: median survival time, dose: 5.0 mg/kg/injection, schedule: Q01DX Z (sc), vehicle: carboxymethylcellulose (CMC)",100 % of control
same,T/C,"endpoint: median survival time, dose: 14.0 mg/kg/injection, schedule: Q01DX Z (sc), vehicle: carboxymethylcellulose (CMC)",109 % of control
same,T/C,"endpoint: median survival time, dose: 23.0 mg/kg/injection, schedule: Q01DX Z (sc), vehicle: carboxymethylcellulose (CMC)",100 % of control
CS(=O)(=O)Nc1ccc(Nc2c3ccccc3nc3cc(Cl)ccc23)cc1,T/C,"endpoint: mean survival time, dose: 10.0 mg/kg/injection, schedule: Q01DX009 (sc), vehicle: saline",104 % of control
same,T/C,"endpoint: mean survival time, dose: 20.0 mg/kg/injection, schedule: Q01DX009 (sc), vehicle: saline",112 % of control
same,T/C,"endpoint: mean survival time, dose: 40.0 mg/kg/injection, schedule: Q01DX009 (sc), vehicle: saline",113 % of control
same,T/C,"endpoint: mean survival time, dose: 80.0 mg/kg/injection, schedule: Q01DX009 (sc), vehicle: saline",124 % of control
CN(C)[C@@H]1C(=O)C(C(=O)NCc2nc3[nH]cnc(=S)c3[nH]2)=C(O)[C@@]2(O)C(=O)C3=C(O)c4c(O)cccc4[C@@](C)(O)[C@H]3C[C@@H]12,T/C,[6],100 % of control
same,T/C,[7],100 % of control
same,T/C,[8],100 % of control
same,T/C,[9],105 % of control
same,T/C,"endpoint: median survival time, dose: 500.0 mg/kg/injection, schedule: Q01DX Z (sc), vehicle: methylcellulose (MC)",175 % of control
COS(C)(=O)=O,T/C,"endpoint: median survival time, dose: 23.0 mg/kg/injection, schedule: Q01DX Z (sc), vehicle: water",100 % of control
same,T/C,"endpoint: median survival time, dose: 39.0 mg/kg/injection, schedule: Q01DX Z (sc), vehicle: water",94 % of control
same,T/C,"endpoint: median survival time, dose: 65.0 mg/kg/injection, schedule: Q01DX Z (sc), vehicle: water",100 % of control

# Reference: PubChem BioAssay AID250 (DTP/NCI, 2004)
